Results taken from PMC12097374 (Bioconjugate chemistry, 2017).

Legend:
C6 rat glioma cells = assay: Confocal cell imaging and displacement in live C6 rat glioma cells; type: cell-based; settings: 0.1 μM probe 29, 100-fold higher concentration (10 μM) of competitor
TSPO = TSPO (Rattus norvegicus, UniProt P16257); settings: cited from earlier work

CCc1cc(CC)n2nc(-c3ccc(OCCF)cc3)c(CC(=O)N(CC)CC)c2n1 [VUIIS 1008, 2-(5,7-diethyl-2-(4-(2-fluoroethoxy)phenyl)-pyrazolo[1,5-a]pyrimidin-3-yl)-N,N-diethylacetamide]
displacement of fluorescent probe 29 in C6 glioma cells (C6 rat glioma cells): completely displaced
fold enhancement in affinity compared with DPA-714 (TSPO): 36 fold

CCC(C)N(C)C(=O)c1cc2ccccc2c(-c2ccccc2Cl)n1 (stereo not drawn) [PK 11195]
displacement of fluorescent probe 29 in C6 glioma cells (C6 rat glioma cells): completely displaced
